Results on eight compounds are retold here after patent publication US20250269039A1, “THERAPEUTIC-OLIGONUCLEOTIDES ACTIVATED BY NUCLEASES” (priority 2020, published 2025).

Broadly, the MIC is the lowest concentration that inhibits growth of the organism.

In brackets after ≈: the same amount, converted by molar mass. Like-named read-outs stand apart in the source and are kept apart here.

Format in all cases: cell-based, Staphylococcus aureus
Series [1] has as its system S. aureus ATCC 29213 (MSSA). Kind of series: Broth microdilution MIC and growth inhibition. As to conditions: for MIC: Staphylococcus aureus; for % Growth inhibition: mean ± SD, n = 3. The source says:
(§1) Bacteria strains. S. aureus NCTC 12493 (MRSA), S. aureus ATCC 29213 (MSSA), S. aureus ATCC 43300 (MRSA), S. aureus ATCC 1707 (MRSA), S. aureus ATCC 1717 (MRSA), S. aureus ATCC 1747 (MRSA), S. aureus ATCC 1761 (MRSA), S. aureus ATCC 1766 (MRSA), S. aureus ATCC 1768 (MRSA), S. epidermidis ATCC 35984, E. coli ATCC 25922, K. pneumoniae ATCC 13883, P. mirabilis ATCC 25933, S. enterica ATCC 14028 and P. aeruginosa ATCC 10145 strains were used in this study. Bacteria were initially inoculated onto tryptone soy agar with 5% defibrinated sheep blood (Thermo Fisher Scientific, Inc., Waltham, MA, USA) and incubated at 37° C. for 24 hours. Then, single colonies of each strain were transferred to tryptone soy broth (Thermo Fisher Scientific) for the nuclease activity assay or antimicrobial susceptibility testing, respectively.
(§2) Antimicrobial susceptibility testing. Minimal inhibitory concentrations (MIC) of all nucleoside analogues and TOUCANs against each bacteria strain were determined using broth microdilution method. A single colony obtained from overnight culture on tryptone soy agar with 5% defibrinated sheep blood was inoculated in cation-adjusted Mueller Hinton Broth and adjusted to 10^6 CFU/mL. TOUCANs were prepared in PBS+/+ (treatment) and serial dilutions were made in 96-well polystyrene round bottom microwell plates with 50 μL final volume for each concentration. PBS+/+ was used as untreated control. Next, 50 μL bacteria solutions were added to each well to a final bacteria concentration of 5×10^5 CFU/mL. Plates were incubated at 37° C. in Cytation 1 Cell Imaging Multimode Reader. Growth curves were obtained by measuring optical densities at 600 nm every 10 minutes for 18 hours using Cytation 1 Cell Imaging Multimode Reader. In addition, visual inspection of the plates was carried out after 18 hours and photographs were taken. MICs were defined as the lowest drug concentration in the microwell at which bacterial growth was not visible at the end of the incubation period. Besides MIC determination, specificity of TOUCAN 7mGe was also shown with subcultures on chromogenic media. For this purpose, 5 μL of different concentrations of each strain were inoculated onto CHROM agar Orientation Media (Becton Dickinson) and the bacterial growth of each bacteria strain tested was observed by naked eye after incubation at 37° C. for 24 hours. Finally, photographs of the chromogenic media were taken.

Series [2] deals with S. aureus NCTC 12493 (MRSA). Kind of series: Broth microdilution MIC and growth inhibition. The note with it: for MIC: Staphylococcus aureus; for % Growth inhibition: mean ± SD, n = 3.
Description: as §1, §2

The next series concerns S. aureus. Kind of series: Growth inhibition curves / MICs in S. aureus cultures (strain not named or summary over strains). The note with it: for bacterial growth inhibition: S. aureus cultures, optical density (OD) over 18 h, FIG. 1b. As for the experimental part:
as §2

Where [3] appears, read: Table 1, S. aureus ATCC 29213, read-out: MIC.
Setting [4] is: Table 1, S. aureus NCTC 12493, read-out: MIC.

As for `Nc1ccn([C@@H]2O[C@H](CO)[C@@H](O)[C@@H]2O)c(=O)n1` [Cytarabine], the MIC in series [1] (setting [3]) and in series [2] (setting [4]) was above 40 µg/mL in each case. For the same compound, the “% Growth inhibition” value is given as 16.3 ± 6.9% in series [1] (Table 1, S. aureus ATCC 29213) and 39.4 ± 2.5% in series [2] (Table 1, S. aureus NCTC 12493).
On to `O=c1[nH]c(=O)n([C@H]2C[C@H](O)[C@@H](CO)O2)cc1I` [Idoxuridine], for which the MIC in series [1] (setting [3]) and in series [2] (setting [4]) was above 40 µg/mL in each case. Moreover, the “% Growth inhibition” value in series [1] (Table 1, S. aureus ATCC 29213) is recorded as 13.4 ± 3.4%; in series [2] (Table 1, S. aureus NCTC 12493), 46.0 ± 0.6%.
Regarding `O=c1[nH]c(=O)n([C@H]2C[C@H](O)[C@@H](CO)O2)cc1C(F)(F)F` [Trifluridine], the MIC in series [1] and in series [2] was 10 µg/mL (≈ 33.8 µM) in each case. The “% Growth inhibition” value was determined as 89.0 ± 5.1% in series [1] (Table 1, S. aureus ATCC 29213) and 88.5 ± 1.1% in series [2] (Table 1, S. aureus NCTC 12493).
With `Nc1ncnc2c1ncn2[C@@H]1O[C@H](CO)[C@@H](O)[C@@H]1O` [Vidarabine], the results for the MIC in series [1] (setting [3]) and in series [2] (setting [4]) were above 40 µg/mL and 40 µg/mL (≈ 150 µM), respectively. Besides, the “% Growth inhibition” value in series [1] (Table 1, S. aureus ATCC 29213) is listed as 34.1 ± 0.8%; in series [2] (Table 1, S. aureus NCTC 12493) it was 85.1 ± 0.8%.
As to T-T-Ge-mU-mU-mU-mU [SDR probe], the “inhibition of bacterial growth (therapeutic efficacy)” value in the series on S. aureus (combinations of the R-S-D moieties, FIG. 1c) turned out to be 30%.
For the compound “mU-mU-mU-mU-Ge-T-T-mU-mU-mU-mU (UUUUGTTUUUU; chemistry not given here) [GeTT, TOUCAN with Gemcitabine upstream of TT]”, the bacterial growth inhibition result in the series with S. aureus is recorded as “low growth inhibition efficiency”.
For mU-mU-mU-mU-Ge-mU-mU-mU-mU [Ge-Control], the bacterial growth inhibition entry in the series with S. aureus is listed as “low growth inhibition efficiency”.
Same read-out and setting: the value for “mU-mU-mU-mU-T-T-Ge-mU-mU-mU-mU (UUUUTTGUUUU; chemistry not given here) [TTGe, TOUCAN with Gemcitabine downstream of TT]” was “around 20%”.
